Patent US12448392B2, “Spiropiperidine derivatives” (89BIO LTD, priority 2016, dated 2025)
Structures can show the parent of a compound that is named as a salt. Where two headings read alike, the source gives them in different places.

Biological target: T1, recombinant human baculovirus-expressed GST-tagged FASN (Homo sapiens, UniProt P49327)
T1 construct: GST
Test: biochemical

[1] = 5 nM FASN, 150 μM NADPH, 10 μM acetyl-CoA, 25 μM malonyl-CoA, 90 minutes incubation, read-out: IC50 data for Compounds of Formula I, Activity

T1 sequence (P49327 whole entry): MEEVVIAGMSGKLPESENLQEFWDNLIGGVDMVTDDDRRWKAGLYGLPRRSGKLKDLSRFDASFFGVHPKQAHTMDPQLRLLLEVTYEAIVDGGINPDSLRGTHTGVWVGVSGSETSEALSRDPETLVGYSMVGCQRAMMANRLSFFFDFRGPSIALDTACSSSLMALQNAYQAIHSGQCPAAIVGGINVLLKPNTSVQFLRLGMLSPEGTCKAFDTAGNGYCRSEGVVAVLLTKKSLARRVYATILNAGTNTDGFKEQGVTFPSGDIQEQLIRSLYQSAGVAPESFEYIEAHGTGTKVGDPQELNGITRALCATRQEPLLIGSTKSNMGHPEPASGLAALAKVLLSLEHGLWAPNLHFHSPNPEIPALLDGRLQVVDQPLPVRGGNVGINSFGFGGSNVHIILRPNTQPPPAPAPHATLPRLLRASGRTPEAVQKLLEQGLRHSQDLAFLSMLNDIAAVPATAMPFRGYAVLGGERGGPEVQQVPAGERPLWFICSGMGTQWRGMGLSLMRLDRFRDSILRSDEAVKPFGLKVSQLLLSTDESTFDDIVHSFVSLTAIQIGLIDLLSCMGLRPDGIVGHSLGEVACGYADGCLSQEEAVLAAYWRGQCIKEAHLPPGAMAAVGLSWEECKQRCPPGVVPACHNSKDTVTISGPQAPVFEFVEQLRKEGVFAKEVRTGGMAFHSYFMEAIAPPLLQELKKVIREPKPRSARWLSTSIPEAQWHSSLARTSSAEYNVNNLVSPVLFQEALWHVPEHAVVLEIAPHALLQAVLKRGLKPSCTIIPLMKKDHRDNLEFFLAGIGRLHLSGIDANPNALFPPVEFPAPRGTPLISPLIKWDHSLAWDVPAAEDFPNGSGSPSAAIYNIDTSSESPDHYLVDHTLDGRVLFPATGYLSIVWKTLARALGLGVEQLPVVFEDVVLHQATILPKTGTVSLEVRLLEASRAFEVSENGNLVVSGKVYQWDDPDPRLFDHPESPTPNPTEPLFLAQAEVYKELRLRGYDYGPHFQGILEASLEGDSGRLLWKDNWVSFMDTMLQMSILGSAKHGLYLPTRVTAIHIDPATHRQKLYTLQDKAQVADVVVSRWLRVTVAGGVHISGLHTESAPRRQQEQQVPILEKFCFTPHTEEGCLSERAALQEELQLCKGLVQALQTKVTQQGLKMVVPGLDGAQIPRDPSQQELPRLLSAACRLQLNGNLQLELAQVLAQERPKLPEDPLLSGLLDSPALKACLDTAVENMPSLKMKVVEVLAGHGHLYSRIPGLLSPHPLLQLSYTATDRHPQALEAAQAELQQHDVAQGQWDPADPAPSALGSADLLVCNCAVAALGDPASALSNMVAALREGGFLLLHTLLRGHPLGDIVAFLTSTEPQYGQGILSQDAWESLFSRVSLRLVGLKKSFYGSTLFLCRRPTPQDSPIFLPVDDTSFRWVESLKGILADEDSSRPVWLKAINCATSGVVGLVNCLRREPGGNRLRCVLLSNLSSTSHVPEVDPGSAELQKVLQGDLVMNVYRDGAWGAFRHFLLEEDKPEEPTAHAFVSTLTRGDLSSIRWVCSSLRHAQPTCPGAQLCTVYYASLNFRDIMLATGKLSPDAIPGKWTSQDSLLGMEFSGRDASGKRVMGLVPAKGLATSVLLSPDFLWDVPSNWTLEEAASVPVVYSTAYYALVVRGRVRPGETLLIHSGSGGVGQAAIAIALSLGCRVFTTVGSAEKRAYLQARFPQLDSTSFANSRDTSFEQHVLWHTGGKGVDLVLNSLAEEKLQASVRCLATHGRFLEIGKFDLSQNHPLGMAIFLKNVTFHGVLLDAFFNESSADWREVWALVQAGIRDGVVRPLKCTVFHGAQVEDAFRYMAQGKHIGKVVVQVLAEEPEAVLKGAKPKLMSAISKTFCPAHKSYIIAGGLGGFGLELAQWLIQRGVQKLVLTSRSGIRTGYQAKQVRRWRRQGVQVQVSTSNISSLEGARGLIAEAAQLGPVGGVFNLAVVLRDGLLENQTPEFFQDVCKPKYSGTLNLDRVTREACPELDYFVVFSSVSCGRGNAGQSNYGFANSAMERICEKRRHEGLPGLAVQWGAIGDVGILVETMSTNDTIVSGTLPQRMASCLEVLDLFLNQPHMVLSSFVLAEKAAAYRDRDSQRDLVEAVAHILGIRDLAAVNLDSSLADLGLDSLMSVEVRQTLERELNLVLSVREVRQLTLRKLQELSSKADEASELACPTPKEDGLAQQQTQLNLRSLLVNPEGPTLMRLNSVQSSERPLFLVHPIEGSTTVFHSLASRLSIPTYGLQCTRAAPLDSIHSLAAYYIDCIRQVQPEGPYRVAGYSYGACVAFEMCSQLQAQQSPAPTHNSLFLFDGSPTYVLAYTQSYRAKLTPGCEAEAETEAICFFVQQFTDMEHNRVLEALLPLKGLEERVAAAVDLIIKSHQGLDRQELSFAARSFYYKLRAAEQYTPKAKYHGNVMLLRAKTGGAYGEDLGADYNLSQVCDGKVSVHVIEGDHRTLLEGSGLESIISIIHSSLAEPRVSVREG

CCONC(=O)N1CCC2(CC1)Cc1cc(-c3ccc4ccnn4c3C)ccc1O2 [Example 169, N-Ethoxy-5-(7-methylpyrazolo[1,5-a]pyridin-6-yl)spiro[3H-benzofuran-2,4′-piperidine]-1′-carboxamide]
IC50 [1]: 1000 to 10000 nM

NC(=O)N1CCC2(CC1)OCc1cc(-c3cc4ccccc4cn3)ccc1O2 [Example 142, 6-(3-Isoquinolyl)spiro[4H-1,3-benzodioxine-2,4′-piperidine]-1′-carboxamide]
IC50: 1000 to 10000 nM

COc1c(-c2ccc3c(c2)COC2(CCN(C(=O)[C@H]4CCCO4)CC2)O3)ccc2cccnc12 [Example 56, [6-(8-Methoxy-7-quinolyl)spiro[4H-1,3-benzodioxine-2,4′-piperidine]-1′-yl]-[(2R)-tetrahydrofuran-2-yl]methanone]
IC50: 1 to 99 nM

O=C([C@H]1CCCO1)N1CCC2(CC1)OCc1cc(-c3ccc4cccnc4c3Cl)ccc1O2 [Example 59, [6-(8-Chloro-7-quinolyl)spiro[4H-1,3-benzodioxine-2,4′-piperidine]-1′-yl]-[(2R)-tetrahydrofuran-2-yl]methanone]
IC50: 1 to 99 nM

Cc1c(-c2ccc3c(c2)C(=O)CC2(CCN(C(N)=O)CC2)O3)ccc2cccnc12 [Example 212, 6-(8-methyl-7-quinolyl)-4-oxo-spiro[chromane-2,4′-piperidine]-1′-carboxamide]
IC50 [1]: 100 to 999 nM

CC(=O)OCC(=O)N1CCC2(CCc3cc(-c4ccc5cccnc5c4Cl)ccc3O2)CC1 [Example 64, [2-[6-(8-chloro-7-quinolyl)spiro[chromane-2,4′-piperidine]-1′-yl]-2-oxo-ethyl]acetate]
IC50 [1]: 100 to 999 nM

NC(=O)N1CCC2(CCc3cc(-c4ccc5scnc5c4)ccc3O2)CC1 [Example 83, 6-(1,3-Benzothiazol-5-yl)spiro[chromane-2,4′-piperidine]-1′-carboxamide]
IC50 [1]: 100 to 999 nM

CCNC(=O)N1CCC2(CC1)Cc1cc(-c3cnc4ccccc4c3C)ccc1O2 [Example 160, N-Ethyl-5-(4-methyl-3-quinolyl)spiro[3H-benzofuran-2,4′-piperidine]-1′-carboxamide]
IC50 [1]: 1000 to 10000 nM

Cc1c(-c2ccc3c(c2)CCC2(CCN(C(=O)NOC(C)C)CC2)O3)ccc2ccnn12 [Example 116, N-Isopropoxy-6-(7-methylpyrazolo[1,5-a]pyridin-6-yl)spiro[chromane-2,4′-piperidine]-1′-carboxamide]
IC50 [1]: 1 to 99 nM

CC(C)(C)OC(=O)N1CCC2(CC1)OCc1cc(-c3cnc4sccc4c3)ccc1O2 [Example 84, tert-Butyl 6-thieno[2,3-b]pyridin-5-ylspiro[4H-1,3-benzodioxine-2,4′-piperidine]-1′-carboxylate]
IC50: 1000 to 10000 nM

Cc1c(-c2ccc3c(c2)COC2(CCN(C(=O)NO)CC2)O3)cnc2ccccc12 [Example 140, 6-(4-Methyl-3-quinolyl)spiro[4H-1,3-benzodioxine-2,4′-piperidine]-1′-carbohydroxamic acid]
IC50: 1000 to 10000 nM

Cc1nccc2cc(-c3ccc4c(c3)COC3(CCN(C(=O)[C@H]5CCCO5)CC3)O4)ccc12 [Example 23, [6-(1-Methyl-6-isoquinolyl)spiro[4H-1,3-benzodioxine-2,4′-piperidine]-1′-yl]-[(2R)-tetrahydrofuran-2-yl]methanone]
IC50: 1 to 99 nM

Cc1c(-c2ccc3c(c2)CCC2(CCN(C(N)=O)CC2)O3)cnc2ccccc12 [Example 190, 6-(4-methyl-3-quinolyl)spiro[chromane-2,4′-piperidine]-1′-carboxamide]
IC50 [1]: 1 to 99 nM

CONC(=O)N1CCC2(CCc3cc(-c4ccc5c(C)nccc5c4)ccc3O2)CC1 [Example 184, N-methoxy-6-(1-methyl-6-isoquinolyl)spiro[chromane-2,4′-piperidine]-1′-carboxamide]
IC50 [1]: 1 to 99 nM

CCOC(=O)N1CCC2(CC1)OCc1cc(-c3ccc4cnc(Cl)cc4c3)ccc1O2 [Example 198, Ethyl 6-(3-chloro-6-isoquinolyl)spiro[4H-1,3-benzodioxine-2,4′-piperidine]-1′-carboxylate]
IC50: 1000 to 10000 nM

Cc1c(-c2ccc3c(c2F)CCC2(CCN(C(N)=O)CC2)O3)ccc2cccnc12 [Example 243, 5-Fluoro-6-(8-methyl-7-quinolyl)spiro[chromane-2,4′-piperidine]-1′-carboxamide]
IC50 [1]: 100 to 999 nM

CONC(=O)N1CCC2(CCc3cc(-c4ccc5cnc(C)cc5c4)ccc3O2)CC1 [Example 209, N-Methoxy-6-(3-methyl-6-isoquinolyl)spiro[chromane-2,4′-piperidine]-1′-carboxamide]
IC50 [1]: 1 to 99 nM

Cc1nccc2cc(-c3ccc4c(c3)CCC3(CCN(C(=O)C5CC5)CC3)O4)ccc12 [Example 25, Cyclopropyl-[6-(1-methyl-6-isoquinolyl)spiro[chromane-2,4′-piperidine]-1′-yl]methanone]
IC50 [1]: 100 to 999 nM

COC(=O)N1CCC2(CC1)CC(=O)c1cc(-c3cnc4ccccc4c3)ccc1O2 [Example 39, Methyl 4-oxo-6-(3-quinolyl)spiro[chromane-2,4′-piperidine]-1′-carboxylate]
IC50 [1]: 1000 to 10000 nM

CCC(=O)N1CCC2(CC1)OCc1cc(-c3ccccn3)ccc1O2 [Example 218, 1-[6-(2-Pyridyl)spiro[4H-1,3-benzodioxine-2,4′-piperidine]-1′-yl]propan-1-one, HCl]
IC50: 1000 to 10000 nM

CCC(=O)N1CCC2(CC1)OCc1cc(-c3cnc4ccccc4c3)ccc1O2 [Example 33, 1-[6-(3-Quinolyl)spiro[4H-1,3-benzodioxine-2,4′-piperidine]-1′-yl]propan-1-one]
IC50: 1 to 99 nM

CCONC(=O)N1CCC2(CCc3cc(-c4ccc5c(C)nccc5c4)ccc3O2)CC1 [Example 185, N-ethoxy-6-(1-methyl-6-isoquinolyl)spiro[chromane-2,4′-piperidine]-1′-carboxamide]
IC50 [1]: 1 to 99 nM

CCONC(=O)N1CCC2(CCc3cc(-c4ccc5cccnc5c4C)ccc3O2)CC1 [Example 101, N-Ethoxy-6-(8-methyl-7-quinolyl)spiro[chromane-2,4′-piperidine]-1′-carboxamide]
IC50 [1]: 1 to 99 nM

O=C(NO)N1CCC2(CCc3cc(-c4ccc5cccnc5c4Cl)ccc3O2)CC1 [Example 68, 6-(8-Chloro-7-quinolyl)spiro[chromane-2,4′-piperidine]-1′-carbohydroxamic acid]
IC50 [1]: 100 to 999 nM

CCOC(=O)N1CCC2(CC1)OCc1cc(-c3ccc4cccnc4c3OC)ccc1O2 [Example 176, Ethyl 6-(8-methoxy-7-quinolyl)spiro[4H-1,3-benzodioxine-2,4′-piperidine]-1′-carboxylate]
IC50: 100 to 999 nM

CCONC(=O)N1CCC2(CC1)OCc1cc(-c3ccc4cnc(C)cc4c3)ccc1O2 [Example 203, N-Ethoxy-6-(3-methyl-6-isoquinolyl)spiro[4H-1,3-benzodioxine-2,4′-piperidine]-1′-carboxamide]
IC50: 1 to 99 nM

Cc1nccc2cc(-c3ccc4c(c3)CCC3(CCN(C(=O)NCC(C)C)CC3)O4)ccc12 [Example 178, N-Isobutyl-6-(1-methyl-6-isoquinolyl)spiro[chromane-2,4′-piperidine]-1′-carboxamide]
IC50 [1]: 1 to 99 nM

Cc1c(-c2ccc3c(c2)COC2(CCN(C(=O)NOC(C)C)CC2)O3)ccc2ccnn12 [Example 130, N-Isopropoxy-6-(7-methylpyrazolo[1,5-a]pyridin-6-yl)spiro[4H-1,3-benzodioxine-2,4′-piperidine]-1′-carboxamide]
IC50: 1 to 99 nM
